Square brackets hold non-standard residues; d marks the D form. Peptide text beside a SMILES is read from it. * marks the point of attachment. Alaψ(CH2NMeCH2CH2OH) = C[C@@H](CN(C)CCO)N*; Decanoyl(2R-Me) = CCCCCCCC[C@@H](C)C(=O)*; Cha = N[C@@H](CC1CCCCC1)C(=O)O; Aib = CC(C)(N)C(=O)O
Columns and labels:
PK-8 = details: MTT assay; only when cultured under minimal glucose in the growth medium; cited from earlier work
Excerpt: (§1) Intriguingly, there exists a precedence for this observation: the recent discovery of the leucinostatin Y by Kawada’s group was also reported alongside a comparative […] (MTT) assay against the parent peptide leucinostatin A (1) on the human PDAC cell lines PANC-1, BxPC-3, PSN-1, and PK-8 [21]. […] On this basis, we opted to re-evaluate the cytotoxicity of both trichoderins (3) and (4) against BxPC-3 and ...

PSN-1 = details: MTT assay; only when cultured under minimal glucose in the growth medium; cited from earlier work
Excerpt: as §1

PANC-1 = details: MTT assay; only when cultured under minimal glucose in the growth medium; cited from earlier work
Excerpt: as §1

BxPC-3 = details: MTT assay; only when cultured under minimal glucose in the growth medium; cited from earlier work
Excerpt: as §1

[1] = system: DU-145 human prostate cancer cells; details: coculture model with prostate stromal cells (PrSC); cited from earlier work
Excerpt: (§2) Over the last decade, research in our group has focused on the synthesis and biological evaluation of aminolipopeptides as new generation anticancer therapeutics. They are structurally defined by the α,α-dialkylated amino acid 2-aminoisobutyric acid (Aib) and an acylated N-terminus. A subset of this family, containing the non-natural building block 2-amino-6-hydroxy-4-methyl-8-oxodecanoic acid (AHMOD), has provided two promising leads in leucinostatin A (1) and culicinin D (2).

[2] = system: MDA-MB-468 human breast cancer cells; details: via inhibition of the mTOR signaling pathway; cited from earlier work
Excerpt: as §2

PANC-1 cells [3] = test: PrestoBlue cell viability assay, comparative cytotoxicity assay under 'low glucose'; format: cell-based, human; details: 24 h exposure; for IC50: 'low glucose' DMEM (no glucose added), 457 pM to 9 µM, three independent experiments each in technical duplicate; for AUC, PrestoBlue, PANC-1 / Emax @ 9 µM, PrestoBlue, PANC-1: 'low glucose', three independent experiments in duplicate; for AUC, PrestoBlue, PANC-1: area under viability-concentration curve, baseline y = 0; for Emax @ 9 µM, PrestoBlue, PANC-1: response (percent viability) at highest concentration 9 µM
Excerpt: (§3) Endpoint fluorescence was quantified as described above.

BxPC-3 cells [4] = test: as above; format: cell-based, human; details: 24 h exposure; for IC50: 'low glucose' RPMI 1640 (no glucose added), 50.8 pM to 1 µM, three independent experiments each in technical duplicate; for AUC, PrestoBlue, BxPC-3 / Emax @ 1 µM, PrestoBlue, BxPC-3: 'low glucose', three independent experiments in duplicate; for AUC, PrestoBlue, BxPC-3: area under viability-concentration curve, baseline y = 0; for Emax @ 1 µM, PrestoBlue, BxPC-3: response (percent viability) at highest concentration 1 µM
Excerpt: as §3

PANC-1 cells [5] = details: 24 h exposure, medium with or without 5 mM glucose, up to 9 µM
Method: (§4) Cells were seeded at a density of 25,000 cells/well (BxPC-3) and 30,000 cells/well (PANC-1) in Nunc MicroWell 96-Well Black Optical-Bottom Plates with Polymer Base (total volume: 100 µL). Cells were first incubated overnight at 37 °C, 5% CO2 to permit adherence, after which the medium in each well was aspirated, briefly washed once with 100 µL/well of PBS (pH 7.4) and replaced with 100 µL of either RPMI 1640 (BxPC-3, #11879020) or DMEM (PANC-1, #11966025) supplemented with or without 5 mM glucose to create the ‘normal glucose’ and ‘low glucose’ media, respectively. This 5 mM glucose concentration was selected to reflect the physiological concentration of glucose in plasma. Each well was then exposed to the peptides in duplicate at a concentration range of 50.8 pM to 1 µM (BxPC-3) or 457 pM to 9 µM (PANC-1) for 24 h (threefold serial dilution in the corresponding ‘normal glucose’ or ‘low glucose’ media, ten steps). Endpoint fluorescence was quantified as described above.
(§5) Blank correction (wells containing medium only) was first performed on the raw fluorescence–concentration data from the plate reader. Cell viability was then calculated as a percentage by normalizing to the fluorescence of the wells containing the lowest drug concentration (50.8 pM for BxPC-3, 457 pM for PANC-1). The resulting data from three independent experiments (each in technical duplicate) was then plotted on GraphPad Prism 9 and analyzed using the built-in ‘[Inhibitor] vs. response—Variable slope (four parameters)’ equation.

BxPC-3 cells [6] = details: 24 h exposure, medium with or without 5 mM glucose, up to 1 µM
Method: as §4, §5

PANC-1 cells [7] = test: CyQUANT Direct cell proliferation assay, comparative cytotoxicity assay under 'low glucose'; format: cell-based, human; details: 24 h exposure; for IC50: 'low glucose' DMEM (no glucose added), 457 pM to 9 µM, three independent experiments each in technical duplicate; for AUC, CyQUANT Direct, PANC-1 / Emax @ 9 µM, CyQUANT Direct, PANC-1: 'low glucose', three independent experiments in duplicate; for AUC, CyQUANT Direct, PANC-1: area under viability-concentration curve, baseline y = 0; for Emax @ 9 µM, CyQUANT Direct, PANC-1: response (percent viability) at highest concentration 9 µM
Excerpt: as §3

BxPC-3 cells [8] = test: as above; format: cell-based, human; details: 24 h exposure; for IC50: 'low glucose' RPMI 1640 (no glucose added), 50.8 pM to 1 µM, three independent experiments each in technical duplicate; for AUC, CyQUANT Direct, BxPC-3 / Emax @ 1 µM, CyQUANT Direct, BxPC-3: 'low glucose', three independent experiments in duplicate; for AUC, CyQUANT Direct, BxPC-3: area under viability-concentration curve, baseline y = 0; for Emax @ 1 µM, CyQUANT Direct, BxPC-3: response (percent viability) at highest concentration 1 µM
Excerpt: as §3

BxPC-3 cells [9] = test: Initial cytotoxicity assay (PrestoBlue and CyQUANT Direct Confirmation Assay), 25 mM glucose; format: cell-based, human; details: 3-day (72 h) incubation, RPMI-1640 with 25 mM glucose, up to highest concentration tested of 1 µM, both viability assays
Method: The CyQUANT™ Direct Cell Proliferation Assay was subsequently performed by mixing the CyQUANT™ Direct nucleic acid stain, CyQUANT™ Direct background suppressor I, and PBS (pH 7.4) as per the vendor instructions, then adding 100 µL of this mixture into each well. The plate was returned into the incubator for a further 1 h, and the endpoint fluorescence bottom-read at the Ex/Em wavelength of 485/538 nm on the SpectraMax iD3 plate reader. Blank wells (medium only) and two negative controls—(1) cells + medium, (2) cells + medium + 0.3% v/v DMSO (equivalent to 1 µM peptide)—were set up in the plate for each experiment.

Molecule	IC50 (PANC-1 cells [3]) [nM]	AUC, PrestoBlue, PANC-1 (PANC-1 cells [3])	Emax @ 9 µM, PrestoBlue, PANC-1 (PANC-1 cells [3]) [%]	IC50 (BxPC-3 cells [4]) [nM]	AUC, PrestoBlue, BxPC-3 (BxPC-3 cells [4])	Emax @ 1 µM, PrestoBlue, BxPC-3 (BxPC-3 cells [4]) [%]	Cytotoxicity against PANC-1 under 'low glucose' vs 'normal glucose' (in words) (PANC-1 cells [5])	Cytotoxicity against BxPC-3 under 'low glucose' vs 'normal glucose' (in words) (BxPC-3 cells [6])	IC50 (PANC-1 cells [7]) [nM]	AUC, CyQUANT Direct, PANC-1 (PANC-1 cells [7])	Emax @ 9 µM, CyQUANT Direct, PANC-1 (PANC-1 cells [7]) [%]	IC50 (BxPC-3 cells [8]) [nM]	AUC, CyQUANT Direct, BxPC-3 (BxPC-3 cells [8])	Emax @ 1 µM, CyQUANT Direct, BxPC-3 (BxPC-3 cells [8]) [%]	also measured
leucinostatin A [(1)]															Cytotoxicity against PK-8 (in words) (PK-8): selectively cytotoxic; Cytotoxicity against PSN-1 (in words) (PSN-1): selectively cytotoxic; Cytotoxicity against PANC-1 (in words) (PANC-1): selectively cytotoxic; Cytotoxicity against BxPC-3 (in words) (BxPC-3): selectively cytotoxic; Cytotoxicity against DU-145 (in words) [1]: cytotoxic
culicinin D [(2)]															Toxicity against MDA-MB-468 (in words) [2]: selectively toxic
CCCCCCCC[C@@H](C)C(=O)N1CCC[C@H]1C(=O)N[C@@H](CC1CCCCC1)C(=O)NC(C)(C)C(=O)NC(C)(C)C(=O)N[C@H](C(=O)N[C@H](C(=O)NC(C)(C)C(=O)NC(C)(C)C(=O)N[C@@H](C)CN(C)CCO)C(C)C)[C@@H](C)CC [(4)] ({Decanoyl(2R-Me)}-P[Cha][Aib][Aib]IV[Aib][Aib]-{Alaψ(CH2NMeCH2CH2OH)})	500	23.1 ×10^−5	2.3	400	5.1 ×10^−5	1.7	selective toxicity under the ‘low glucose’ condition	selective toxicity under the ‘low glucose’ condition	1300	39.6 ×10^−5	29.2	400	5.4 ×10^−5	21.0	Inhibition of proliferation of BxPC-3 cells (in words) (BxPC-3 cells [9]): only partially inhibited the proliferation
CC[C@H](C)[C@H](NC(=O)C(C)(C)NC(=O)C(C)(C)NC(=O)[C@H](CC1CCCCC1)NC(=O)[C@@H]1CCCN1)C(=O)N[C@H](C(=O)NC(C)(C)C(=O)NC(C)(C)C(=O)N[C@@H](C)CN(C)CCO)C(C)C [(12)] (H-P[Cha][Aib][Aib]IV[Aib][Aib]-{Alaψ(CH2NMeCH2CH2OH)})	> 9000	90.6 ×10^−5	101.0	> 1000	10.2 ×10^−5	104.0	inactivity	inactivity	> 9000	92.6 ×10^−5	107.0	> 1000	11 ×10^−5	115.0	

Reference: PMC9866366 (Pharmaceutics, 2023)
